Reference: the supplement of paper PMC10307832

How the values were obtained:
Assay in all cases: relative viability (nuclei count vs DMSO), 5 days (fraction); higher = more cells survive
LCLC-97TM1 = test system: LCLC-97TM1
Outline: (§1)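 Five library-drug doses in √10 steps were combined with a fixed anchor-drug dose, or a single drug was given alone, by pin tool to lung cancer cell lines in 1536-well plates the day after seeding. Nuclei were stained and counted after 5 days. Relative viability is the nuclei count in treated wells over that in vehicle wells, taken as the median of duplicate plates.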

PC-3 [JPC-3] = test system: PC-3 [JPC-3]
Outline: as §1

NCI-H1734 = test system: NCI-H1734
Outline: as §1

NCI-H1355 = test system: NCI-H1355
Outline: as §1

NCI-H1975 = test system: NCI-H1975
Outline: as §1

H3255 = test system: H3255
Outline: as §1

HCC-15 = test system: HCC-15
Outline: as §1

LK-2 = test system: LK-2
Outline: as §1

NCI-H322M = test system: NCI-H322M
Outline: as §1

NCI-H520 = test system: NCI-H520
Outline: as §1

RERF-LC-KJ = test system: RERF-LC-KJ
Outline: as §1

NCI-H2405 = test system: NCI-H2405
Outline: as §1

NCI-H2228 = test system: NCI-H2228
Outline: as §1

EKVX = test system: EKVX
Outline: as §1

CAL-12T = test system: CAL-12T
Outline: as §1

PC-14 = test system: PC-14
Outline: as §1

NCI-H1755 = test system: NCI-H1755
Outline: as §1

HCC-827 = test system: HCC-827
Outline: as §1

NCI-H1563 = test system: NCI-H1563
Outline: as §1

NCI-H661 = test system: NCI-H661
Outline: as §1

## COc1cc2nccc(Oc3ccc(NC(=O)Nc4cc(C)on4)c(Cl)c3)c2cc1OC [Tivozanib] + C[C@]1(O)C[C@@H](c2nc(-c3ccc4ccc(-c5ccccc5)nc4c3)c3c(N)nccn32)C1 [Linsitinib] (partner 1 µM)
LCLC-97TM1; first compound 0.005 µM
  relative viability: 0.154
LCLC-97TM1; first compound 0.01581 µM
  relative viability: 0.179
LCLC-97TM1; first compound 0.1581 µM
  relative viability: 0.187
LCLC-97TM1; first compound 0.5 µM
  relative viability: 0.178
PC-3 [JPC-3]; first compound 0.005 µM
  relative viability: 0.903
PC-3 [JPC-3]; first compound 0.01581 µM
  relative viability: 0.921
PC-3 [JPC-3]; first compound 0.05 µM
  relative viability: 1
PC-3 [JPC-3]; first compound 0.1581 µM
  relative viability: 1.01
PC-3 [JPC-3]; first compound 0.5 µM
  relative viability: 0.915
NCI-H1734; first compound 0.005 µM
  relative viability: 0.847
NCI-H1734; first compound 0.01581 µM
  relative viability: 0.795
NCI-H1734; first compound 0.05 µM
  relative viability: 1.03
NCI-H1734; first compound 0.1581 µM
  relative viability: 0.674
NCI-H1734; first compound 0.5 µM
  relative viability: 0.858
NCI-H1355; first compound 0.005 µM
  relative viability: 0.776
NCI-H1355; first compound 0.01581 µM
  relative viability: 0.809
NCI-H1355; first compound 0.05 µM
  relative viability: 0.895
NCI-H1355; first compound 0.5 µM
  relative viability: 0.844
NCI-H1975; first compound 0.005 µM
  relative viability: 0.976
NCI-H1975; first compound 0.01581 µM
  relative viability: 0.893
NCI-H1975; first compound 0.05 µM
  relative viability: 0.956
NCI-H1975; first compound 0.1581 µM
  relative viability: 0.784
NCI-H1975; first compound 0.5 µM
  relative viability: 0.916
H3255; first compound 0.005 µM
  relative viability: 0.965
H3255; first compound 0.01581 µM
  relative viability: 0.933
H3255; first compound 0.05 µM
  relative viability: 1.09
H3255; first compound 0.1581 µM
  relative viability: 1.05
H3255; first compound 0.5 µM
  relative viability: 0.891
HCC-15; first compound 0.005 µM
  relative viability: 0.9
HCC-15; first compound 0.01581 µM
  relative viability: 0.878
HCC-15; first compound 0.05 µM
  relative viability: 0.9
HCC-15; first compound 0.1581 µM
  relative viability: 0.875
HCC-15; first compound 0.5 µM
  relative viability: 0.897
LK-2; first compound 0.005 µM
  relative viability: 0.521
LK-2; first compound 0.01581 µM
  relative viability: 0.616
LK-2; first compound 0.05 µM
  relative viability: 0.49
LK-2; first compound 0.1581 µM
  relative viability: 0.601
LK-2; first compound 0.5 µM
  relative viability: 0.393
NCI-H322M; first compound 0.005 µM
  relative viability: 0.942
NCI-H322M; first compound 0.01581 µM
  relative viability: 0.961
NCI-H322M; first compound 0.05 µM
  relative viability: 0.989
NCI-H322M; first compound 0.1581 µM
  relative viability: 0.92
NCI-H322M; first compound 0.5 µM
  relative viability: 0.825
NCI-H520; first compound 0.005 µM
  relative viability: 0.838
NCI-H520; first compound 0.01581 µM
  relative viability: 0.966
NCI-H520; first compound 0.05 µM
  relative viability: 0.883
NCI-H520; first compound 0.1581 µM
  relative viability: 0.935
NCI-H520; first compound 0.5 µM
  relative viability: 0.821
RERF-LC-KJ; first compound 0.005 µM
  relative viability: 0.828
RERF-LC-KJ; first compound 0.01581 µM
  relative viability: 0.855
RERF-LC-KJ; first compound 0.05 µM
  relative viability: 0.901
RERF-LC-KJ; first compound 0.1581 µM
  relative viability: 0.92
RERF-LC-KJ; first compound 0.5 µM
  relative viability: 0.88
NCI-H2405; first compound 0.005 µM
  relative viability: 0.945
NCI-H2405; first compound 0.01581 µM
  relative viability: 0.996
NCI-H2405; first compound 0.05 µM
  relative viability: 0.943
NCI-H2405; first compound 0.1581 µM
  relative viability: 0.89
NCI-H2405; first compound 0.5 µM
  relative viability: 0.897
NCI-H2228; first compound 0.005 µM
  relative viability: 0.504
NCI-H2228; first compound 0.01581 µM
  relative viability: 0.683
NCI-H2228; first compound 0.05 µM
  relative viability: 0.697
NCI-H2228; first compound 0.1581 µM
  relative viability: 0.569
NCI-H2228; first compound 0.5 µM
  relative viability: 0.868
EKVX; first compound 0.005 µM
  relative viability: 0.95
EKVX; first compound 0.01581 µM
  relative viability: 0.931
EKVX; first compound 0.05 µM
  relative viability: 1.07
EKVX; first compound 0.1581 µM
  relative viability: 1.07
EKVX; first compound 0.5 µM
  relative viability: 1.09
CAL-12T; first compound 0.005 µM
  relative viability: 0.761
CAL-12T; first compound 0.01581 µM
  relative viability: 0.666
CAL-12T; first compound 0.05 µM
  relative viability: 0.717
CAL-12T; first compound 0.1581 µM
  relative viability: 0.713
CAL-12T; first compound 0.5 µM
  relative viability: 0.816
PC-14; first compound 0.005 µM
  relative viability: 0.939
PC-14; first compound 0.01581 µM
  relative viability: 0.957
PC-14; first compound 0.05 µM
  relative viability: 1.06
PC-14; first compound 0.1581 µM
  relative viability: 1.01
PC-14; first compound 0.5 µM
  relative viability: 1.01
NCI-H1755; first compound 0.005 µM
  relative viability: 0.968
NCI-H1755; first compound 0.01581 µM
  relative viability: 0.918
NCI-H1755; first compound 0.05 µM
  relative viability: 1.05
NCI-H1755; first compound 0.1581 µM
  relative viability: 1.02
NCI-H1755; first compound 0.5 µM
  relative viability: 0.96
HCC-827; first compound 0.005 µM
  relative viability: 0.969
HCC-827; first compound 0.01581 µM
  relative viability: 0.942
HCC-827; first compound 0.05 µM
  relative viability: 0.944
HCC-827; first compound 0.1581 µM
  relative viability: 1.04
HCC-827; first compound 0.5 µM
  relative viability: 0.965
NCI-H1563; first compound 0.005 µM
  relative viability: 1.19
NCI-H1563; first compound 0.01581 µM
  relative viability: 1.32
NCI-H1563; first compound 0.05 µM
  relative viability: 1.24
NCI-H1563; first compound 0.1581 µM
  relative viability: 1.12
NCI-H1563; first compound 0.5 µM
  relative viability: 1.22
NCI-H661; first compound 0.005 µM
  relative viability: 0.525
NCI-H661; first compound 0.01581 µM
  relative viability: 0.564
NCI-H661; first compound 0.05 µM
  relative viability: 0.498
NCI-H661; first compound 0.1581 µM
  relative viability: 0.707
NCI-H661; first compound 0.5 µM
  relative viability: 0.652
